Results on one compound are retold here after patent publication US20050025769A1, “Method of suppressing ongoing acute allograft rejection” (Fujisawa Pharmaceutical Company, Ltd., priority 1999, published 2005).

Each structure is given as a SMILES string.

In experiment [1] the test system is heart allografts, ongoing graft rejection. Put plainly: Rescue of ongoing heart allograft rejection (drug from day 5 for 10 days). The experiment is classed as in vivo, rat. To be noted: 3.2 mg/kg/day on days 5-14 post-transplantation. The text has this: (§1) Inbred male Lewis rats (LEW) (RT1^1), weighing 200-250 g, were used as heart transplantation recipients. Inbred male LEW and inbred male Brown Norway (BN) (RT1^a), weighing 150-200 g, were used as isograft and allograft donor rats, respectively. […] Rejection of heart grafts was defined as the complete cessation of impulse and was confirmed visually after laparatomy. […] Control isograft and allograft recipients (5 rats each) received no immunosuppressant drugs after transplantation.
Therefore, drug administration was halted from day 0-day 4 after heart transplantation in order to initiate the transplantation process.

Experiment [2] has as its system heart allografts (BN to LEW). Put plainly: Rat heart transplantation, primary therapy to prevent acute allograft rejection (drug day 0 to day 10). The experiment is classed as in vivo. To be noted: for median survival time (MST) of heart allografts: day 0 to day 10 after transplantation, allograft control 6 days.
Description: as §1

A further experiment deals with IL10 protein. Put plainly: ELISA assay of IL10 protein in serum peripheral lymphocytes of heart allograft recipients. In kind it is in vivo, rat. As to conditions: day 7 post-transplantation, compared with the allograft control; optimal doses from day 5. As for the experimental part: (§2) The transplantation method described in Example 5 was used. […] The levels of IL2, IL4 and IL10 proteins in serum peripheral lymphocytes were measured at day 7 post-transplantation by ELISA assay.

Experiment [3] deals with renal allografts (BN to LEW). Put plainly: Rescue of ongoing renal allograft rejection (drug from day 2 or day 4 for 13 days). The experiment is classed as in vivo, rat. As to conditions: untreated allograft controls rejected at day 8. As for the experimental part: Male LEW rats weighing 250-350 g and male BN rats weighing 150-250 g were kept under specific pathogen-free conditions in the animal facility at Fujisawa Pharmaceutical Co., Ltd., Osaka, Japan. […] The donor ureter was directly implanted into the recipient bladder over a fine polyethylene internal stent. All recipients were bilaterally nephrectomized at the time of transplantation. The graft ischemic time was approximately 30 minutes. Survival of the kidney transplant was measured as time of rat survival. Graft rejection was confirmed by histological examination of kidney tissue from recipients with the observation of interstitial hemorrhage, tubular necrosis, venous endotheliatitis and diffuse lymphoplasmacytic infiltration indicating graft rejection. […] Control isograft and allograft recipients received either distilled water, olive oil, or placebo after transplantation.

Experiment [4] deals with T-cell-dependent antibody production, graft vs. host reactivity, delayed-type sensitivity reactions. To be noted: suppressing T-cell-dependent antibody production; cited from earlier work.
The subject of another experiment is IL2 and IL4 protein. Put plainly: ELISA assay of IL2 and IL4 proteins in serum peripheral lymphocytes of heart allograft recipients. The experiment is classed as in vivo, rat. As to conditions: day 7 post-transplantation; optimal doses from day 5. As for the experimental part:
as §2

In experiment [5] the test system is CD4+, CD8+, NKR-P1A, and ED2 positive cells. Put plainly: Immunohistological examination of cell infiltration into heart allograft tissue. To be noted: CsA 10 mg/kg/day, tacrolimus 3.2 mg/kg/day orally from day 5. In kind it is in vivo, rat. The text has this: The presence of CD4+, CD8+, NKR-P1A, and ED2 positive cells was examined on day 5, 7 and 10 after transplantation by immunohistological examination of graft tissue immunostained with specific antibodies to various immune cell populations. For immunohistology, 4 μm frozen sections of heart tissue were cut, fixed with acetone and exposed to monoclonal antibodies (Pharmingen, San Diego, Calif.) against markers for CD4+ (helper T cells), CD8^+ (cytotoxic T cells), NKR-P1A (natural killer cells), and ED2 (macrophage cells) positive cells. Then the sections were incubated with peroxidase-conjugated anti-mouse IgG antibodies. The bound peroxidase was detected using 3-amino-9-ethylcarbazole. The results were scored quantitatively. In each tissue section, three random representative fields were counted by visual microscope (×40) to determine the average cell number per tissue.

The next experiment deals with IL10 mRNA. Put plainly: RT-PCR for IL10 mRNA in heart graft tissues. The experiment is classed as in vivo, rat. To be noted: days 7 and 10; CsA 10 mg/kg/day, tacrolimus 3.2 mg/kg/day from day 5. As for the experimental part: At day 5, 7 and 10 after transplantation, total RNA was extracted from heart graft tissues and tested by reverse transcriptase-polymerase chain reaction (RT-PCR) for cytokine mRNAs. Total RNA was extracted from transplanted heart tissue by TRIZOL (GIBCO BRL, Gaithersburg, Md.). RT-PCR was performed by reverse transcribing total RNA into cDNA using random hexamers (GIBCO BRL, Gaithersburg, Md.). The reverse-transcribed material was added to the PCR mixture with sense and anti-sense primers of IFNγ, IL2, IL4, IL10, IL1β, IL6, TNFα, TGFβ, Granzyme, Perforin or G3PDH and Taq DNA polymerase (Boehringer Mann heim GmbH, Mannheim, Germany). Amplification was performed with optimized cycles for each cytokine or G3PDH by ThermalCycler (Perkin-Elmer, Branchburg, N.J.). PCR product was applied to 2.3% agarose gel, resolved by electrophoresis, and visualized by ethidium bromide staining. The intensity of the gene-specific bands was obtained by the Gel Doc 1000 documentation system (BIO-RAD Laboratories, Hercules, Calif.). G3PDH mRNA was amplified as an internal control for RT-PCR.

A further experiment has as its system allograft survival. As to conditions: optimal doses administered several days after transplantation, after allograft rejection has begun; cited from earlier work.
In another experiment the test system is liver transplantation. To be noted: clinical organ transplantation, estimated; cited from earlier work.

For the compound `C=CC[C@@H]1/C=C(\C)C[C@H](C)C[C@H](OC)[C@H]2O[C@@](O)(C(=O)C(=O)N3CCCC[C@H]3C(=O)O[C@H](/C(C)=C/[C@@H]3CC[C@@H](O)[C@H](OC)C3)[C@H](C)[C@@H](O)CC1=O)[C@H](C)C[C@@H]2OC` [tacrolimus, Tacrolimus], the “extension of the survival of the graft” value in experiment [1] (versus allograft control) was “about 13 days”. Further, in [1] (allograft control 6 days), the “MST of heart allografts” value stood at 19 days. Further, the figures for the “median survival time (MST) of heart allografts” value in experiment [2] (1.0 mg/kg/day orally), in experiment [2] (3.2 mg/kg/day orally) and in experiment [2] (10 mg/kg/day orally) were 12 days, 19 days and 21 days, respectively. In experiment [2] (primary therapy, oral, day 0 to day 10, based on MST), this compound showed an optimal dose of 3.2 mg/kg/day. The “suppression of IL10 protein expression” value with IL10 protein is listed as 73%. For the same compound, the “recipient rats that survived more than 50 days” value in experiment [3] (3.2 mg/kg/day from day 2-14 after grafting) is reported as “all of 5”; in experiment [3] (3.2 mg/kg/day from day 4-16 after grafting), 3 of 5. Further, the “potency relative to CsA in vivo” value in experiment [4] is reported as 10 times. Also, the “suppression of the expression of IL2 and IL4 protein” value in the experiment on IL2 and IL4 protein is “equally”. In addition, the “suppression of all of the cell infiltration into the local graft tissues” value in experiment [5] (day 7) is given as “no significant suppression”. In addition, the “blocking CD8+ and NKR-P1A cell infiltration” value in experiment [5] (day 10) was “significantly blocked”. The “blocking the CD4+ and ED2 cell filtration” value in experiment [5] (day 10) is “partially blocking”. Also, in the experiment on IL10 mRNA, the “suppression of IL10 mRNA expression” value is “more than CsA”. In addition, in the experiment on allograft survival, the “effect on allograft survival” value is on record as “significantly increase allograft survival”. In the experiment on liver transplantation, the “potency relative to CsA in liver transplantation” value is “three to ten orders of magnitude more potent”.
